Experiments:
morningglory = assay: Test C pre-/postemergence herbicide test; format: in vivo, Ipomoea coccinea
Method in brief: (§1)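 Visual rating, 0 (no effect) to 100 (complete control), versus untreated controls after 13 to 15 days in the greenhouse. Pre: seeds in loam/sand, sprayed at planting. Post: 1- to 4-leaf plants (2 to 18 cm) in peat-based mix. Compounds in non-phytotoxic solvent plus surfactant.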

corn [1] = assay: Test C pre-/postemergence herbicide test; format: in vivo, Zea mays
Method in brief: as §1

lambsquarters = assay: Test C pre-/postemergence herbicide test; format: in vivo, Chenopodium album
Method in brief: as §1

wheat = assay: Test A pre-/postemergence herbicide test; format: in vivo, Triticum aestivum; details: Postemergence; for Plant response rating, Wheat: 125 g ai/ha, 0 to 100 scale; for Wheat plant response rating (0 to 100 scale, 0 is no effect, 100 is complete control): 500 g ai/ha
Method in brief: (§2)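 Seeds sown in loam soil/sand blend received a preemergence directed soil spray of test chemical in non-phytotoxic solvent with surfactant; postemergence plants (2–10 cm, one- to two-leaf stage) were sprayed with the same formulation. After about 10 days in greenhouse, injury was rated visually versus untreated controls, 0 (no effect) to 100 (complete control).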

johnsongrass = assay: Test C pre-/postemergence herbicide test; format: in vivo, Sorghum halepense
Method in brief: as §1

ryegrass, Italian = assay: Test C pre-/postemergence herbicide test; format: in vivo, Lolium multiflorum
Method in brief: as §1

ragweed = assay: Test C pre-/postemergence herbicide test; format: in vivo, Ambrosia elatior
Method in brief: as §1

pigweed = assay: Test A pre-/postemergence herbicide test; format: in vivo, Amaranthus retroflexus; details: for Plant response rating, Pigweed: 0 to 100 scale
Method in brief: as §2

rice = assay: Test B flooded paddy test; format: in vivo, Oryza sativa; details: 500 g ai/ha, Flood; scale of 0 to 100 where 0 is no effect and 100 is complete control
Method in brief: (§3)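 Plants were grown to the 2-leaf stage, then pots were flooded to 3 cm above the soil and compound was applied directly into the paddy water, with that depth held throughout. After 13 to 15 days in a greenhouse, injury was rated visually against untreated controls on a 0 to 100 scale (100 = complete control).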

nutsedge, yellow = assay: Test C pre-/postemergence herbicide test; format: in vivo, Cyperus esculentus
Method in brief: as §1

ducksalad = assay: Test B flooded paddy test; format: in vivo, Heteranthera limosa; details: 500 g ai/ha, Flood; scale of 0 to 100 where 0 is no effect and 100 is complete control
Method in brief: as §3

corn [2] = assay: Test A pre-/postemergence herbicide test; format: in vivo, Zea mays; details: Postemergence
Method in brief: as §2

[3] = Postemergence, 31 g ai/ha, scale 0 to 100 (0 no effect, 100 complete control)
[4] = Postemergence, 62 g ai/ha, scale 0 (no effect) to 100 (complete control)
[5] = Postemergence, 125 g ai/ha, scale 0 to 100 (0 no effect, 100 complete control)
[6] = Postemergence, 250 g ai/ha, scale 0 to 100 (0 no effect, 100 complete control)
[7] = Preemergence, 31 g ai/ha, scale 0 to 100, 0 is no effect and 100 is complete control
[8] = Preemergence, 62 g ai/ha, scale 0 to 100
[9] = Preemergence, 125 g ai/ha, scale 0 to 100 (0 no effect, 100 complete control)
[10] = 125 g ai/ha, visual rating, 0 no effect, 100 complete control, approximately 10 days, preemergence
[11] = Preemergence, 62 g ai/ha, scale 0 to 100 (0 no effect, 100 complete control)

`O=C1NCC(c2ccc(F)cc2)C1C(=O)Nc1ccc(F)c(F)c1F` (racemic) [Compound 120] was tested, and the “Plant response rating, Morningglory” value (morningglory; [3]) was 0, the “Plant response rating, Morningglory” value (morningglory; [4]) was 5 and the “Plant response rating, Morningglory” value (morningglory; [5]) was 0. The “Plant response rating, Morningglory” value (morningglory; [6]) was 5, the “Morningglory plant response rating” value (morningglory; [7]) was 0 and the “Plant response rating, Morningglory” value (morningglory; [8]) was 0. The “Plant response rating, Morningglory” value (morningglory; [9]) was 35, the “Plant response rating (scale of 0 to 100), Morningglory” value (morningglory; Preemergence, 250 g ai/ha) was 40 and the “Plant response rating, Corn” value (corn [1]; [3]) was 0. The “Plant response rating, Corn” value (corn [1]; [4]) was 0, the “Plant response rating, Corn” value (corn [1]; [5]) was 0 and the “Plant response rating, Corn” value (corn [1]; [6]) was 0. The “Corn plant response rating” value (corn [1]; [7]) was 0, the “Plant response rating, Corn” value (corn [1]; [8]) was 0 and the “Plant response rating, Corn” value (corn [1]; [9]) was 20. For the same molecule, the “Plant response rating (scale of 0 to 100), Corn” value (corn [1]; Preemergence, 250 g ai/ha) was 65, the “Plant response rating, Lambsquarters” value (lambsquarters; [3]) was 55 and the “Plant response rating, Lambsquarters” value (lambsquarters; [4]) was 55. For the same molecule, the “Plant response rating, Lambsquarters” value (lambsquarters; [5]) was 60, the “Plant response rating, Lambsquarters” value (lambsquarters; [6]) was 70 and the “Lambsquarters plant response rating” value (lambsquarters; [7]) was 35. The “Plant response rating, Lambsquarters” value (lambsquarters; [8]) was 70, the “Plant response rating, Lambsquarters” value (lambsquarters; [9]) was 85 and the “Plant response rating (scale of 0 to 100), Lambsquarters” value (lambsquarters; Preemergence, 250 g ai/ha) was 90. For the same molecule, the “Plant response rating, Wheat” value (wheat; 0 no effect, 100 complete control) was 20, the “Wheat plant response rating (0 to 100 scale, 0 is no effect, 100 is complete control)” value (wheat) was 60 and the “Plant response rating, Johnsongrass” value (johnsongrass; [3]) was 0. The “Plant response rating, Johnsongrass” value (johnsongrass; [4]) was 0, the “Plant response rating, Johnsongrass” value (johnsongrass; [5]) was 0 and the “Plant response rating, Johnsongrass” value (johnsongrass; [6]) was 0. The “Johnsongrass plant response rating” value (johnsongrass; [7]) was 0, the “Plant response rating, Johnsongrass” value (johnsongrass; [8]) was 0 and the “Plant response rating, Johnsongrass” value (johnsongrass; [9]) was 25. For the same molecule, the “Plant response rating (scale of 0 to 100), Johnsongrass” value (johnsongrass; Preemergence, 250 g ai/ha) was 65, the “Plant response rating, Ryegrass, Italian” value (ryegrass, Italian; [3]) was 0 and the “Plant response rating, Ryegrass, Italian” value (ryegrass, Italian; [4]) was 0. For the same molecule, the “Plant response rating, Ryegrass, Italian” value (ryegrass, Italian; [5]) was 0, the “Plant response rating, Ryegrass, Italian” value (ryegrass, Italian; [6]) was 10 and the “Ryegrass, Italian plant response rating” value (ryegrass, Italian; [7]) was 10. The “Plant response rating, Ryegrass, Italian” value (ryegrass, Italian; [8]) was 5, the “Plant response rating, Ryegrass, Italian” value (ryegrass, Italian; [9]) was 10 and the “Plant response rating (scale of 0 to 100), Ryegrass, Italian” value (ryegrass, Italian; Preemergence, 250 g ai/ha) was 30. The “Plant response rating, Ragweed” value (ragweed; [3]) was 20, the “Plant response rating, Ragweed” value (ragweed; [4]) was 45 and the “Plant response rating, Ragweed” value (ragweed; [5]) was 40. For the same molecule, the “Plant response rating, Ragweed” value (ragweed; [6]) was 45, the “Ragweed plant response rating” value (ragweed; [7]) was 0 and the “Plant response rating, Ragweed” value (ragweed; [8]) was 20. The “Plant response rating, Ragweed” value (ragweed; [9]) was 55, the “Plant response rating (scale of 0 to 100), Ragweed” value (ragweed; Preemergence, 250 g ai/ha) was 80 and the “Plant response rating, Pigweed” value (pigweed; [10]) was 30. For the same molecule, the “Plant response rating, Pigweed” value (pigweed; Postemergence, 125 g ai/ha, 0 no effect, 100 complete control) was 20, the “Pigweed plant response rating (0 to 100 scale, 0 is no effect, 100 is complete control)” value (pigweed; Postemergence, 500 g ai/ha) was 50 and the “Plant response rating, Pigweed” value (pigweed; preemergence, 500 g ai/ha) was 40. The “Plant response rating, Rice” value (rice) was 20, the “Plant response rating, Nutsedge, Yellow” value (nutsedge, yellow; [3]) was 0 and the “Plant response rating, Nutsedge, Yellow” value (nutsedge, yellow; [4]) was 0. For the same molecule, the “Plant response rating, Nutsedge, Yellow” value (nutsedge, yellow; [5]) was 0, the “Plant response rating, Nutsedge, Yellow” value (nutsedge, yellow; [6]) was 0 and the “Nutsedge, Yellow plant response rating” value (nutsedge, yellow; [7]) was 0. For the same molecule, the “Plant response rating, Nutsedge, Yellow” value (nutsedge, yellow; [8]) was 0, the “Plant response rating, Nutsedge, Yellow” value (nutsedge, yellow; [9]) was 0 and the “Plant response rating (scale of 0 to 100), Nutsedge, Yellow” value (nutsedge, yellow; Preemergence, 250 g ai/ha) was 0. For the same molecule, the “Plant response rating, Ducksalad” value (ducksalad) was 100, the “Plant response rating, Corn” value (corn [2]; 125 g ai/ha, 0 to 100 scale, 0 no effect, 100 complete control) was 20 and the “Plant response rating, Corn” value (corn [2]; 500 g ai/ha, 0 to 100 scale (0 no effect, 100 complete control)) was 80.

For `O=C1NCC(c2ccc(C(F)(F)F)cc2)C1C(=O)Nc1cccc(F)c1F` (racemic) [Compound 202], the “Plant response rating, Morningglory” value (morningglory; [3]) was 5, the “Plant response rating, Morningglory” value (morningglory; [4]) was 10 and the “Plant response rating, Morningglory” value (morningglory; [5]) was 70. For the same molecule, the “Plant response rating, Morningglory” value (morningglory; [6]) was 10, the “Morningglory plant response rating” value (morningglory; [7]) was 15 and the “Morningglory plant response rating” value (morningglory; [11]) was 25. For the same molecule, the “Plant response rating, Morningglory” value (morningglory; [9]) was 25, the “Plant response rating (scale of 0 to 100), Morningglory” value (morningglory; Preemergence, 250 g ai/ha) was 40 and the “Plant response rating, Corn” value (corn [1]; [3]) was 0. The “Plant response rating, Corn” value (corn [1]; [4]) was 0, the “Plant response rating, Corn” value (corn [1]; [5]) was 10 and the “Plant response rating, Corn” value (corn [1]; [6]) was 35. The “Corn plant response rating” value (corn [1]; [7]) was 20, the “Corn plant response rating” value (corn [1]; [11]) was 85 and the “Plant response rating, Corn” value (corn [1]; [9]) was 75. For the same molecule, the “Plant response rating (scale of 0 to 100), Corn” value (corn [1]; Preemergence, 250 g ai/ha) was 85, the “Plant response rating, Lambsquarters” value (lambsquarters; [3]) was 70 and the “Plant response rating, Lambsquarters” value (lambsquarters; [4]) was 80. For the same molecule, the “Plant response rating, Lambsquarters” value (lambsquarters; [5]) was 80, the “Plant response rating, Lambsquarters” value (lambsquarters; [6]) was 85 and the “Lambsquarters plant response rating” value (lambsquarters; [7]) was 80. For the same molecule, the “Lambsquarters plant response rating” value (lambsquarters; [11]) was 90, the “Plant response rating, Lambsquarters” value (lambsquarters; [9]) was 90 and the “Plant response rating (scale of 0 to 100), Lambsquarters” value (lambsquarters; Preemergence, 250 g ai/ha) was 100. For the same molecule, the “Plant response rating, Wheat” value (wheat; 0 is no effect, 100 is complete control) was 40, the “Wheat plant response rating (0 to 100 scale, 0 is no effect, 100 is complete control)” value (wheat) was 50 and the “Plant response rating, Johnsongrass” value (johnsongrass; [3]) was 0. The “Plant response rating, Johnsongrass” value (johnsongrass; [4]) was 20, the “Plant response rating, Johnsongrass” value (johnsongrass; [5]) was 25 and the “Plant response rating, Johnsongrass” value (johnsongrass; [6]) was 25. The “Johnsongrass plant response rating” value (johnsongrass; [7]) was 10, the “Johnsongrass plant response rating” value (johnsongrass; [11]) was 60 and the “Plant response rating, Johnsongrass” value (johnsongrass; [9]) was 70. For the same molecule, the “Plant response rating (scale of 0 to 100), Johnsongrass” value (johnsongrass; Preemergence, 250 g ai/ha) was 85, the “Plant response rating, Ryegrass, Italian” value (ryegrass, Italian; [3]) was 0 and the “Plant response rating, Ryegrass, Italian” value (ryegrass, Italian; [4]) was 0. The “Plant response rating, Ryegrass, Italian” value (ryegrass, Italian; [5]) was 5, the “Plant response rating, Ryegrass, Italian” value (ryegrass, Italian; [6]) was 35 and the “Ryegrass, Italian plant response rating” value (ryegrass, Italian; [7]) was 0. The “Ryegrass, Italian plant response rating” value (ryegrass, Italian; [11]) was 30, the “Plant response rating, Ryegrass, Italian” value (ryegrass, Italian; [9]) was 30 and the “Plant response rating (scale of 0 to 100), Ryegrass, Italian” value (ryegrass, Italian; Preemergence, 250 g ai/ha) was 5. The “Plant response rating, Ragweed” value (ragweed; [3]) was 70, the “Plant response rating, Ragweed” value (ragweed; [4]) was 75 and the “Plant response rating, Ragweed” value (ragweed; [5]) was 80. For the same molecule, the “Plant response rating, Ragweed” value (ragweed; [6]) was 85, the “Ragweed plant response rating” value (ragweed; [7]) was 65 and the “Ragweed plant response rating” value (ragweed; [11]) was 85. For the same molecule, the “Plant response rating, Ragweed” value (ragweed; [9]) was 85, the “Plant response rating (scale of 0 to 100), Ragweed” value (ragweed; Preemergence, 250 g ai/ha) was 100 and the “Plant response rating, Pigweed” value (pigweed; [10]) was 60. The “Plant response rating, Pigweed” value (pigweed; Postemergence, 125 g ai/ha, 0 is no effect, 100 is complete control) was 70, the “Pigweed plant response rating (0 to 100 scale, 0 is no effect, 100 is complete control)” value (pigweed; Postemergence, 500 g ai/ha) was 80 and the “Plant response rating, Pigweed” value (pigweed; preemergence, 500 g ai/ha, 0 is no effect and 100 is complete control) was 70. The “Plant response rating, Rice” value (rice) was 15, the “Plant response rating, Nutsedge, Yellow” value (nutsedge, yellow; [3]) was 0 and the “Plant response rating, Nutsedge, Yellow” value (nutsedge, yellow; [4]) was 0. For the same molecule, the “Plant response rating, Nutsedge, Yellow” value (nutsedge, yellow; [5]) was 0, the “Plant response rating, Nutsedge, Yellow” value (nutsedge, yellow; [6]) was 0 and the “Nutsedge, Yellow plant response rating” value (nutsedge, yellow; [7]) was 0. The “Nutsedge, Yellow plant response rating” value (nutsedge, yellow; [11]) was 0, the “Plant response rating, Nutsedge, Yellow” value (nutsedge, yellow; [9]) was 0 and the “Plant response rating (scale of 0 to 100), Nutsedge, Yellow” value (nutsedge, yellow; Preemergence, 250 g ai/ha) was 0. For the same molecule, the “Plant response rating, Ducksalad” value (ducksalad) was 100, the “Plant response rating, Corn” value (corn [2]; 125 g ai/ha, 0 to 100 scale, 0 is no effect, 100 is complete control) was 80 and the “Corn plant response rating (0 to 100 scale, 0 is no effect, 100 is complete control)” value (corn [2]; 500 g ai/ha) was 90.

From US10294202B2, “Pyrrolidinones as herbicides” (FMC Corporation, priority 2013, dated 2019)
